The values that follow come from PubChem BioAssay (NCI).

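Five concentrations, 48 hours, 96-well plates. The concentration for full growth arrest is given as TGI.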

Test systems include MOLT-4 leukemia; OVCAR-3 ovarian; A498 renal; BT-549 breast; EKVX NSCLC; SW-620 colon; UACC-257 melanoma; U251 CNS; HCC-2998 colon; MALME-3M melanoma; SF-539 CNS; NCI-H522 lung; RPMI-8226 leukemia; A549 NSCLC; HCT-15 colon; MDA-MB-231 breast; HL-60(TB) leukemia.
Common to all, as to test: NCI-60 cell line screen, 48 h

For `CCOC(=O)CCC(NC(=O)c1ccc(N2CCN(c3c(C)nc(N)nc3N)CC2)cc1)C(=O)OCC` (stereo unspecified), the TGI in the assay on MOLT-4 leukemia, with OVCAR-3 ovarian, in the assay with A498 renal, with BT-549 breast, in the assay on EKVX NSCLC and with SW-620 colon was over 100 µM throughout. Besides, the TGI in the assay on UACC-257 melanoma was over 55.9 µM; in the assay on U251 CNS, over 100 µM; in the assay with HCC-2998 colon it was over 100 µM; in the assay with MALME-3M melanoma, over 100 µM; in the assay on SF-539 CNS, over 100 µM; in the assay with NCI-H522 lung, over 100 µM. Further, the TGI with RPMI-8226 leukemia is 6.94 µM; in the assay with A549 NSCLC, over 100 µM; in the assay on HCT-15 colon, over 100 µM; in the assay on MDA-MB-231 breast, over 100 µM.
In the case of `CN(CCc1ccc(N)cc1)[C@H]1CCCC[C@H]1N1CCCC1`, the TGI in the assay with MOLT-4 leukemia, with OVCAR-3 ovarian, with A498 renal, in the assay on BT-549 breast, in the assay on EKVX NSCLC and in the assay on SW-620 colon was over 100 µM throughout. In addition, the TGI in the assay on HL-60(TB) leukemia, in the assay with UACC-257 melanoma, with U251 CNS, in the assay on HCC-2998 colon, in the assay with MALME-3M melanoma and with NCI-H522 lung was over 100 µM throughout. Moreover, the TGI with RPMI-8226 leukemia, with A549 NSCLC, in the assay on HCT-15 colon and with MDA-MB-231 breast was over 100 µM in each case.
With `CC(C)C1OC(=O)/C=C/C=C/C=C/C=C/C=C/CC(O)CC(O)CC(O)CC(O)CC(O)CC(O)CC(O)CC(O)/C=C/C1C` (stereo unspecified), the TGI in the assay with MOLT-4 leukemia, in the assay on OVCAR-3 ovarian, in the assay with A498 renal, in the assay on BT-549 breast, in the assay with EKVX NSCLC and with SW-620 colon was over 100 µM throughout. In addition, the TGI with HL-60(TB) leukemia, with UACC-257 melanoma, in the assay with U251 CNS, with HCC-2998 colon, with MALME-3M melanoma and in the assay with SF-539 CNS was over 100 µM in each case. Also, the TGI with RPMI-8226 leukemia, in the assay on A549 NSCLC, in the assay on HCT-15 colon and in the assay on MDA-MB-231 breast was over 100 µM each time.
As for `Cc1ccc(N=C2C(=O)C3=C(OC(C)(C)CC3)c3ccccc32)cc1`, the TGI is 3.08 µM with MOLT-4 leukemia; 0.589 µM in the assay on OVCAR-3 ovarian; 3.81 µM with A498 renal; 3.46 µM in the assay on BT-549 breast; 3.35 µM in the assay with EKVX NSCLC; 2.14 µM in the assay with SW-620 colon. Moreover, the TGI worked out at 3.21 µM in the assay on HL-60(TB) leukemia; 1.72 µM with UACC-257 melanoma; 1.91 µM in the assay with U251 CNS; 3.36 µM in the assay with HCC-2998 colon; 1.7 µM in the assay with MALME-3M melanoma; 3 µM with NCI-H522 lung. Also, the TGI in the assay with RPMI-8226 leukemia was determined as 0.933 µM; in the assay with A549 NSCLC it was 3.69 µM; with MDA-MB-231 breast, 4.1 µM.
On to `CC(C)CCn1c(=O)c2c(=O)[nH][nH]c2c2ccccc21`, for which the TGI in the assay with OVCAR-3 ovarian, in the assay with A498 renal, in the assay on BT-549 breast, in the assay on EKVX NSCLC, in the assay on SW-620 colon and with HL-60(TB) leukemia was over 100 µM throughout. For the same molecule, the TGI in the assay on UACC-257 melanoma, in the assay with U251 CNS, with HCC-2998 colon, in the assay with MALME-3M melanoma, in the assay with SF-539 CNS and with NCI-H522 lung was over 100 µM throughout. For the same molecule, the TGI with RPMI-8226 leukemia, with A549 NSCLC, with HCT-15 colon and with MDA-MB-231 breast was over 100 µM throughout.
For the molecule `S=C1N=C(Cl)C2(NN1)c1ccccc1-c1ccccc12`, the TGI in the assay with MOLT-4 leukemia, in the assay on A498 renal, with BT-549 breast, in the assay with EKVX NSCLC, in the assay on SW-620 colon and in the assay on HL-60(TB) leukemia was over 10 µM each time. Besides, the TGI in the assay with UACC-257 melanoma, with U251 CNS, in the assay with HCC-2998 colon, in the assay with MALME-3M melanoma, in the assay on SF-539 CNS and with RPMI-8226 leukemia was over 10 µM throughout. The TGI with A549 NSCLC, in the assay with HCT-15 colon and with MDA-MB-231 breast was over 10 µM throughout.
Take `O=S1C2=C(Cc3ccccc3)C(Cc3ccccc3)=C1CCc1cccc(c1)CC2`: the TGI in the assay on MOLT-4 leukemia worked out at 63.7 µM; in the assay with OVCAR-3 ovarian it was 23.5 µM; with BT-549 breast, 27.2 µM; with EKVX NSCLC it was 26.3 µM; with SW-620 colon, 77.9 µM; in the assay on HL-60(TB) leukemia, 59.8 µM. Further, the TGI was 27.8 µM with UACC-257 melanoma; 26.8 µM in the assay on U251 CNS; 27.5 µM with HCC-2998 colon; 32.5 µM in the assay on MALME-3M melanoma; 41 µM in the assay on SF-539 CNS; 27.6 µM in the assay with NCI-H522 lung. The TGI in the assay with A549 NSCLC was determined as 36.3 µM; in the assay on HCT-15 colon, 30.5 µM; with MDA-MB-231 breast, 31.3 µM.
Regarding `CC(=O)Nc1ccc2[nH]c(-c3cccc(F)c3)cc(=O)c2c1`, the TGI in the assay on MOLT-4 leukemia is over 100 µM; in the assay with A498 renal it was over 59.8 µM; with BT-549 breast, over 100 µM; in the assay with EKVX NSCLC, over 100 µM; with SW-620 colon it was over 100 µM; in the assay with HL-60(TB) leukemia it was 80.7 µM. The TGI is over 100 µM in the assay with UACC-257 melanoma; 16.3 µM in the assay on U251 CNS; 23 µM in the assay on HCC-2998 colon; over 100 µM in the assay with MALME-3M melanoma; 6.92 µM in the assay with SF-539 CNS; 20.2 µM in the assay with NCI-H522 lung. Besides, the TGI with RPMI-8226 leukemia was over 59.8 µM; in the assay on A549 NSCLC, over 100 µM; with HCT-15 colon it was over 100 µM; in the assay on MDA-MB-231 breast, over 59.6 µM.
`c1cc2c(c(-c3c4ccccc4nc4ccccc34)c1)CC1(CC2)OCCO1`: the TGI in the assay on MOLT-4 leukemia, in the assay on OVCAR-3 ovarian, with A498 renal, with BT-549 breast, in the assay with EKVX NSCLC and in the assay on SW-620 colon was over 100 µM each time. Also, the TGI with UACC-257 melanoma, in the assay on U251 CNS, in the assay with HCC-2998 colon, in the assay with MALME-3M melanoma, in the assay on SF-539 CNS and with NCI-H522 lung was over 100 µM each time. For the same molecule, the TGI in the assay with RPMI-8226 leukemia, with A549 NSCLC, in the assay with HCT-15 colon and in the assay on MDA-MB-231 breast was over 100 µM each time.
